In ChEMBL document CHEMBL6109146, “Discovery of New Pyrazolone Carbothioamide Derivatives as Potent Antifungal Agents for the Treatment of Candidiasis and Cryptococcosis” (J Med Chem, 2025):
Active and inactive are the calls of the source. No cut-off for these calls is given here.

What was measured:
Candida albicans [1] = assay: Antifungal activity against Candida albicans SC5314 assessed as inhibition of fungal growth incubated for 48 to 72 hrs by microplate reader analysis; type: functional, organism-based; settings: time 48-72 hrs
Candida albicans [2] = assay: Antifungal activity against Candida albicans 103 assessed as inhibition of fungal growth incubated for 48 to 72 hrs by microplate reader analysis; type: functional, organism-based; settings: time 48-72 hrs
Candida albicans [3] = assay: Antifungal activity against Candida albicans 9296 assessed as inhibition of fungal growth incubated for 48 to 72 hrs by microplate reader analysis; type: functional, organism-based; settings: time 48-72 hrs
[Candida] auris [4] = Antifungal activity against Candida auris 15448 assessed as inhibition of fungal growth incubated for 48 to 72 hrs by microplate reader analysis; type: functional, organism-based; settings: Candidozyma auris, time 48-72 hrs
[Candida] auris [5] = Antifungal activity against Candida auris 0029 assessed as inhibition of fungal growth incubated for 48 to 72 hrs by microplate reader analysis; type: functional, organism-based; settings: Candidozyma auris, time 48-72 hrs
[Candida] auris [6] = Antifungal activity against Candida auris 0030 assessed as inhibition of fungal growth incubated for 48 to 72 hrs by microplate reader analysis; type: functional, organism-based; settings: Candidozyma auris, time 48-72 hrs
Cryptococcus neoformans [7] = assay: Antifungal activity against Cryptococcus neoformans H99 assessed as inhibition of fungal growth incubated for 48 to 72 hrs by microplate reader analysis; type: functional; settings: time 48-72 hrs
Cryptococcus neoformans [8] = assay: Antifungal activity against Cryptococcus neoformans 011409 assessed as inhibition of fungal growth incubated for 48 to 72 hrs by microplate reader analysis; type: functional; settings: time 48-72 hrs
Cryptococcus neoformans [9] = assay: Antifungal activity against Cryptococcus neoformans HN-68 assessed as inhibition of fungal growth incubated for 48 to 72 hrs by microplate reader analysis; type: functional; settings: time 48-72 hrs
Cryptococcus gattii = assay: Antifungal activity against Cryptococcus gattii 01063P assessed as inhibition of fungal growth incubated for 48 to 72 hrs by microplate reader analysis; type: functional; settings: time 48-72 hrs
Nakaseomyces glabratus [10] = assay: Antifungal activity against Candida glabrata 8535 assessed as inhibition of fungal growth incubated for 48 to 72 hrs by microplate reader analysis; type: functional; settings: time 48-72 hrs
Nakaseomyces glabratus [11] = assay: Antifungal activity against Candida glabrata 9256 assessed as inhibition of fungal growth incubated for 48 to 72 hrs by microplate reader analysis; type: functional; settings: time 48-72 hrs
Nakaseomyces glabratus [12] = assay: Antifungal activity against Candida glabrata 0161 assessed as inhibition of fungal growth incubated for 48 to 72 hrs by microplate reader analysis; type: functional; settings: time 48-72 hrs

Structure (SMILES)	Activity (Candida albicans [1])	Activity (Candida albicans [2])	Activity (Candida albicans [3])	Activity ([Candida] auris [4])	Activity ([Candida] auris [5])	Activity ([Candida] auris [6])	Activity (Cryptococcus neoformans [7])	Activity (Cryptococcus neoformans [8])	Activity (Cryptococcus neoformans [9])	Activity (Cryptococcus gattii)	Activity (Nakaseomyces glabratus [10])	Activity (Nakaseomyces glabratus [11])	Activity (Nakaseomyces glabratus [12])
CCCCCCCCc1ccc(NC(=S)n2[nH]c(N)cc2=O)cc1	Active	Active	Active	Active	Active	Active	Active	Active	Active	Active	Active	Active	Active
CCCCCCc1ccc(NC(=S)N2N=C(N)CCC2=O)cc1	inactive	inactive	inactive	inactive	inactive	inactive	inactive	inactive	inactive	inactive	inactive	inactive	inactive
Nc1ccn(C(=S)Nc2ccc(C3CCCCC3)cc2)n1	inactive	inactive	inactive	inactive	inactive	inactive	inactive	inactive	inactive	inactive	inactive	inactive	inactive
CCc1ccc(NC(=S)n2[nH]c(N)cc2=O)cc1	Active	Active	Active	Active	Active	Active	Active	Active	Active	Active	Active	Active	Active
Nc1cc(=O)n(C(=S)Nc2ccc3c(c2)COC3=O)[nH]1	inactive	inactive	inactive	inactive	inactive	inactive	Not active; Decrease In Activity Observed	Not active; Decrease In Activity Observed	Not active; Decrease In Activity Observed	Not active; Decrease In Activity Observed	Not active; Decrease In Activity Observed	Not active; Decrease In Activity Observed	Not active; Decrease In Activity Observed
CC(=O)c1ccc(NC(=O)n2[nH]c(N)cc2=O)cc1	inactive	inactive	inactive	inactive	inactive	inactive	inactive	inactive	inactive	inactive	inactive	inactive	inactive
Nc1cc(=O)n(C(=S)Nc2ccc(OC3CCCCC3)cc2)[nH]1	Active	Active	Active	Active	Active	Active	Active	Active	Active	Active	Active	Active	Active
Nc1cc(=O)n(C(=S)Nc2ccc(C(F)(F)F)cc2)[nH]1	Not active; Compound Demonstrated Reduced Activity Compared To Lead Compound 1	Not active; Compound Demonstrated Reduced Activity Compared To Lead Compound 1	Not active; Compound Demonstrated Reduced Activity Compared To Lead Compound 1	Not active; Compound Demonstrated Reduced Activity Compared To Lead Compound 1	Not active; Compound Demonstrated Reduced Activity Compared To Lead Compound 1	Not active; Compound Demonstrated Reduced Activity Compared To Lead Compound 1	Not active; Compound Demonstrated Reduced Activity Compared To Lead Compound 1	Not active; Compound Demonstrated Reduced Activity Compared To Lead Compound 1	Not active; Compound Demonstrated Reduced Activity Compared To Lead Compound 1	Not active; Compound Demonstrated Reduced Activity Compared To Lead Compound 1	Active	Active	Active
CCCCc1ccc(NC(=S)n2[nH]c(N)cc2=O)cc1	Active	Active	Active	Active	Active	Active	Active	Active	Active	Active	Active	Active	Active
Nc1cc(=O)n(C(=S)Nc2cccnc2)[nH]1	inactive	inactive	inactive	inactive	inactive	inactive	Not active; Decrease In Activity Observed	Not active; Decrease In Activity Observed	Not active; Decrease In Activity Observed	Not active; Decrease In Activity Observed	Not active; Decrease In Activity Observed	Not active; Decrease In Activity Observed	Not active; Decrease In Activity Observed
Nc1cc(=O)n(C(=S)Nc2ccc3ncccc3c2)[nH]1	Not active; Decrease In Activity Observed	Not active; Decrease In Activity Observed	Not active; Decrease In Activity Observed	Not active; Decrease In Activity Observed	Not active; Decrease In Activity Observed	Not active; Decrease In Activity Observed	Active	Active	Active	Active	Active	Active	Active
CC(=O)c1ccc(NC(=S)n2[nH]c(N)cc2=O)cc1	Not active; Compound Demonstrated Reduced Activity Compared To Lead Compound 1	Not active; Compound Demonstrated Reduced Activity Compared To Lead Compound 1	Not active; Compound Demonstrated Reduced Activity Compared To Lead Compound 1	Not active; Compound Demonstrated Reduced Activity Compared To Lead Compound 1	Not active; Compound Demonstrated Reduced Activity Compared To Lead Compound 1	Not active; Compound Demonstrated Reduced Activity Compared To Lead Compound 1	Not active; Compound Demonstrated Reduced Activity Compared To Lead Compound 1	Not active; Compound Demonstrated Reduced Activity Compared To Lead Compound 1	Not active; Compound Demonstrated Reduced Activity Compared To Lead Compound 1	Not active; Compound Demonstrated Reduced Activity Compared To Lead Compound 1	Active	Active	Active
Nc1cc(=O)n(C(=S)Nc2ccc(C(=O)c3ccccc3)cc2)[nH]1	inactive	inactive	inactive	inactive	inactive	inactive	Active	Active	Active	Active	Active	Active	Active
CNC(=O)c1ccc(NC(=S)n2[nH]c(N)cc2=O)cc1	Not active; Compound Demonstrated Reduced Activity Compared To Lead Compound 1	Not active; Compound Demonstrated Reduced Activity Compared To Lead Compound 1	Not active; Compound Demonstrated Reduced Activity Compared To Lead Compound 1	Not active; Compound Demonstrated Reduced Activity Compared To Lead Compound 1	Not active; Compound Demonstrated Reduced Activity Compared To Lead Compound 1	Not active; Compound Demonstrated Reduced Activity Compared To Lead Compound 1	Not active; Compound Demonstrated Reduced Activity Compared To Lead Compound 1	Not active; Compound Demonstrated Reduced Activity Compared To Lead Compound 1	Not active; Compound Demonstrated Reduced Activity Compared To Lead Compound 1	Not active; Compound Demonstrated Reduced Activity Compared To Lead Compound 1	Active	Active	Active
